# Columns and labels:
# [1] = Zeta potential of particles measured with Zetasizer; format: physicochemical; conditions: PBS pH 7.4, FIG. 2
# Method: (§1) Malvern Zetasizer Nano ZS90; Size parameters:
# (§2) Material: Protein RI: 1.45 Absorption: 0.00, Dispersant: Water 25° C.: 0.8872 cP RI: 1.330; 37° C.: 0.6864 cP RI: 1.330, Cell: DTS 1060C: Clear disposable zeta cell
# (§3) Measurement: Automatic 3 runs, positioning method: seek for optimum position, automatic attention selection, analysis model: general purpose
# Zeta parameters: Dielectric constant: 78.5 at 25° C. and 74.4 at 37° C.
# Model: Smoluchowski F(KA)value: 1.5, measurement: automatic 3 runs Automatic attention selection
# (§4) Peptide oxidation: The peptide was dissolved to a concentration below 1 mM (2.75 mg/mL) in phosphate buffered saline (PBS), pH 7.4. (Ph. Eur.), e.g., 5 mg in 10 mL (=0.5 mg/mL). The solution was purged with pure oxygen for 5 minutes at 37° C. Incubate for 2 h at 37° C.
# (§5) For the bacterial lysate dilution 1 mL of bacterial cell lysate were diluted up to 10 mL with PBS pH 7.4. (Ph. Eur.).
# (§6) Attachment to the lysate particles was achieved by adding 1 ml bacterial lysate (=1.2 mg E. coli) with 0.097714286 mg hLF.
# (§7) 20 μL of a 0.5 mg/mL solution of peptide were added to 1 mL of the previously diluted vaccine (0.12 mg/mL) and incubated 2 hours under low stirring, 100-150 rpm, at 4° C., preventing any foam building
# [2] = Particle size (diameter) measured with Zetasizer; format: physicochemical; conditions: PBS pH 7.4, FIG. 1
# Method: as §1, §2, §3, §4, §5, §6, §7
# IgG immuno response = test: Total IgG by ELISA in rats treated with bacterial lysate, hLf fragment or their combination; format: in vivo
# Method: Bacterial lysate: Klebsiella pneumoniae CECT 141; 12.000 million bacteria/mL (ten times the final concentration), Standard non-glycerinated formulation, without phenol hLF fragment, […] (SEQ ID NO: 1) oxidised form, as lyophilisate product; dosed in vials of 50 mg each, in 25 mL vials, to be reconstituted and used as stock solution for the length of the assay. Once reconstituted, keep cooled (4° C.)
# Reconstitution of the hLF stock solution was performed by reconstitution of the 50 mg hLF fragment in a vial by addition of 20 mL of PBS. It was ensured a complete, proper reconstitution to a clear, homogeneous, particle-free solution. The vial was gently shaken by repeated inversion of the closed vial. The result was the hLF-stock solution for the trial: nominal concentration 2.5 mg/mL.
# The hLF dilution for the animal trial was performed daily. For this 1 mL of the reconstituted hLF stock solution were transferred into a new 25 mL vial, followed by adding 21.5 mL of PBS and carefully mixing by repeated inversions of the closed vial to avoid foam formation. The result was the daily stock dilution, nominal concentration 0.1 mg/ml.
# 4.5 ml of the daily hLf dilution were transferred to a suitable vial (5 ml capacity or bigger), followed by adding 0.5 ml of the 12,000 million bacteria/mL bacterial lysate, and carefully mixing by repeated inversions of the closed vial to avoid foam formation. The result was 5 ml of A+B vaccine, 1200 million bacteria/ml, 0.1 mg hLf fragment/ml, ensuring the ratio 12:1.
# 4.5 ml of the daily hLf dilution were transferred to a suitable vial (5 ml capacity or bigger), followed by adding 0.5 ml of PBS and carefully mixing by repeated inversions of the closed vial and avoid foam formation. The result was 5 ml of 0.1 mg/ml hLf fragment solution.
# 0.5 ml of the bacterial lysate (12,000 million bacteria/ml) were transferred to a suitable vial (5 ml capacity or bigger), followed by adding 4.5 ml of PBS, and carefully mixing by repeated inversions of the closed vial and avoid foam formation. […]
# The parameter to be measured is total IgG. […]
# Albumin = target: T1, Albumin (Bos taurus, UniProt P02769); test: Diffusion kinetics of hLf fragment mixed with protein, time-correlation confocal microscopy with fluorescent labels; format: binding; conditions: protein I
# T1 construct: purchased
# Text: (§8) 3 different classes of cell-culture and blood derived naturally glycosylated proteins were mixed together in a native, that is, physiologically similar standard electrolyte buffer with the concentration shown in the Table with the same 22-mer of the human-lactoferrin peptides described above (using Sequence […] (SEQ ID NO: 1)).
# (§9) The protein I is Albumin a blood protein fraction, known in its recombinant human version or as blood-product, protein II is a selective IgG antibody. Both from commercial sources. hLf as the reference moves as “free” in the volume element of the focus of the microscope whereas about 4% or 15% respectively of the fragment are unspecifically bound and moves slower.
# IgG antibody = test: as above; format: binding; conditions: protein II, selective IgG antibody
# Text: as §8, §9
# [3] = Diffusion kinetics of free hLf fragment (reference), time-correlation confocal microscopy with fluorescent labels; format: physicochemical; conditions: hLf alone as reference
# Text: as §8, §9
# T1 sequence (P02769 25-607): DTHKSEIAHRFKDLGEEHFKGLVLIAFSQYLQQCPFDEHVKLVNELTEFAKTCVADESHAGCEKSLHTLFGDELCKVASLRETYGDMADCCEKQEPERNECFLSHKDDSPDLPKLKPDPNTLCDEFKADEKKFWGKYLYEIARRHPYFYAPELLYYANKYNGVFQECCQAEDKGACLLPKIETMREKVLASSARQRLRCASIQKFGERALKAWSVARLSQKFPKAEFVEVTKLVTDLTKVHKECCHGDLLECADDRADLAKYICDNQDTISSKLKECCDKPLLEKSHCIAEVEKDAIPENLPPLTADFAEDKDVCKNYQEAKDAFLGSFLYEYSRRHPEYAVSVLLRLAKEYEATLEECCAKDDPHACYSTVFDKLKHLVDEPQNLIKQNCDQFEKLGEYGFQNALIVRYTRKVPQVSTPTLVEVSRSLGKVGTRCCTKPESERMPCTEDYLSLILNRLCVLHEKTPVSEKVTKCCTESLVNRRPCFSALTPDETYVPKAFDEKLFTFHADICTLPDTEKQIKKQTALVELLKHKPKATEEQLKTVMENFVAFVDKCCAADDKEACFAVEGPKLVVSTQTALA
sequence,measurement,setting,value
"KCFQWQRNMRKVRGPPVSCIKR (listed as Homo sapiens) [hLf, human lactoferrin derived peptide, 22-mer, used as antigen masking agent]",Zeta potential (surface charge of particles),[1],overall positive charge
same,Particle size (aggregation),[2],Aggregation is prone to occur
same,Variation in the IgG levels over time,"IgG immuno response; independent of the mode of administration (i.p. or intragastric), days 0-27",does not appear to induce any effect on IgG levels over time
same,IgG levels compared with hLf+extract group,"IgG immuno response; intragastric, day 6",superior IgG levels
same,IgG levels compared with control group,"IgG immuno response; intraperitoneal, day 6 to day 27",no statistically significant difference
same,fragment unspecifically bound (moves slower),Albumin,about 4%
same,fragment unspecifically bound (moves slower),IgG antibody,~15%
same,TauD1,[3],33 us
same,TauD2,[3],1419 us
same,f1,[3],99%

# — US9724422B2, “Human lactoferrin derived peptide for use as an antigen masking agent” (Evonik Roehm GmbH, priority 2010, dated 2017)
